Reference: patent US20070275953A1 (priority 2003, published 2007)
Read-outs that look alike come from different tables or passages of the source.

Columns and labels:
[1] = system: HIV-1 mutant Cys181RT in P4 cells; assay: Anti-HIV assay on P4 cells, Cys181RT mutant; assay type: cell-based
Excerpt: (§1) In order to introduce mutation(s) at the level of the pol gene coding for the RT in the pNL4-3 plasmid containing the complete viral genome (Adachi et al., 1986. J. Virol., Vol. 59 p 284-291) we used the “Quick change mutagenesis kit” (Stratagene). The following mutations were separately introduced in pNL4-3: L100I, K103N, V108I, Y181C, Y188C, and the double mutations K103N/V108I. These mutations were chosen because of the resistance that they confer to existing NNRTI. The production procedure of the mutant viral stocks is identical to the one described above.
Anti-HIV activity and cytotoxicity of the compounds were tested on a P4 cell line. The P4 cell line (Clavel & Charneau, 1994. J. Virol., Vol. 68 p 1179-1185) was provided by Dr. François Clavel (Unité de recherche antivirale de l'hôpital Xavier Bichat Paris: Inserm). The P4 cells were cultured in complete DMEM medium supplemented with 10% fetal bovine serum (FBS), 0.5% of Penicillin/Streptomycin and G418 at 0.5 mg/ml. Exponentially growing cells were trypsinized, centrifuged and split twice weekly at 5.10^4 cells/ml.
The P4 cells are HIV-infectible Hela-CD4 cells that carry the bacterial lacZ gene under the control of the HIV-1 long terminal repeat (LTR). In this cell line, transcription of the LacZ gene is driven by the HIV-1 LTR. As such, the cytoplasmic accumulation of β-galactosidase is strictly dependent on the presence of the HIV transactivator Tat produced during the intracellular viral replication (Clavel & Charneau, 1994. J. Virol., Vol. 68, p. 1179-1185). In other words, in this system, the expression level of the β-galactosidase gene is proportional to the viral replication.
Briefly, in the anti-HIV assay 100 Ål of P4 cells were plated in 96-well plate at a concentration of 0.4 10^5 cells/ml and incubated at 37° C., 5% CO2. After 48 h, the medium was removed and 100 Ål of the different drugs dilutions were added to the cells. Four hours after the addition of the drugs all cells were infected with equal amount of cell-free virus, corresponding to 100 ng of HIV p24 antigen. After 48 h of incubation at 37° C., 5% CO2, β-galactosidase activity was measured using chlorophenol red-β-D-galactopyranoside assays.
The absorbance was measured on a Benchmark™ Microplate Reader (Biorad) (λ=570 nm) and compared with 12 cell control replicates (no virus or drug added) and 12 virus control wells (no drug added). Each assay was performed a minimum of three times. The 50% effective concentration (Ec50) was calculated from each dose response curve using the CurveExpert 1.3 software. As Nevirapine activity corresponds to its published values (10-100 nM), the data are consistent with other measures of viral replication.

[2] = target: T1, HIV-1 reverse transcriptase (Human immunodeficiency virus type 1 group M subtype B, UniProt P04585); assay: HIV-1 in vitro reverse transcriptase activity (fixed-time RNA dependent DNA polymerase assay); assay type: biochemical; conditions: residual RT activity, compound at 10 μM; RT activity without compound set at 100%
T1 construct: fixed-time assay for HIV-1 reverse transcriptase RNA dependent DNA polymerase activity; RT was purchased from Calbiochem; purchased Calbiochem CAL382129-500
Description: For the in vitro inhibition studies of the HIV-1 reverse transcriptase activity, stock solutions of the compounds of the present invention were prepared in dimethyl sulfoxide at a final concentration of 10 mM and kept at room temperature. Nevirapine was purchased from Boehringer Ingelheim. Efavirenz was received from the NIH AIDS Research and Reference Reagent Program.
In vitro inhibition studies used a fixed-time assay for HIV-1 reverse transcriptase RNA dependent DNA polymerase activity. RT was purchased from Calbiochem (ref CAL382129-500). One unit of RT corresponds to the amount of enzyme which incorporates one nanomole of [^3H]TTP in 10 minutes at 37° C.
Assays were performed in a final volume of 50 μl. […] Reaction mixtures were incubated at 37° C. for 10 min. The incorporation rate was determined by a standard trichloroacetic acid precipitation procedure (adapted from Current protocols in molecular biology. Eds Wiley, MGH Harvard medical school) and liquid scintillation counting using a Wallac scintillation counter.
The in vitro activity of the compounds, at a final concentration of 10 μM, on the reverse transcriptase (RT) activity of HIV-1 is derivable from the relative (%) reduction in RT activity. Hereby, the RT activity in the absence of any of the compounds is set at 100%.

[3] = system: HIV-1 mutant Ile100RT in MT4 cells; assay: Anti-HIV assay on MT4 cells, Ile100RT mutant; assay type: cell-based
Excerpt: as §1
(§2) Anti-HIV activity of the compounds was tested on MT-4 cell line. The MT-4 cell line (Larder et al. 1989. Sciences, Vol. 243 p 1731) was received from the NIH AIDS Research and Reference Reagent Program. These cells were cultured in RPMI medium supplemented with 10% fetal bovine serum (FBS), and 1% Penicillin/Streptomycin. The cultures were split regularly to keep cells densities between 0.3 to 1.2 10^6 cells/ml.
(§3) The MT-4 cells rapidly die upon infection by HIV. In this system there is an inverse correlation between cells survival and the amount of viral replication.
(§4) Briefly, in the anti-HIV assay exponentially growing MT-4 cells were infected with HIV-1. 100 μl of infected MT-4 cells were seeded in 96-well plate at a concentration of 0.4 10^5 cells/ml, and 100 μl of the different drugs dilutions were added to the cells. After 4 days of incubation at 37° C., 5% CO2, cells survival was measured using MTS (3-(4-5-dimethylthiazol-2-yl)-5-(−(3-carboxymethoxyphenyl)-2-(4-sulfophenyl)-2H-tetrazolium) assays. This compound is reduced by viable cells in a colored soluble formazan salt.
(§5) The absorbance was measured on a Benchmark™ Microplate Reader (Biorad) (λ=490 nm) and compared with 12 cell control replicates (nor virus nor drug added) and 12 virus control wells (no drug added). Each assay was performed a minimum of three times. The 50% effective concentration (EC50) was calculated from each dose response curve using the CurveExpert 1.3 software.

[4] = system: HIV-1 mutant Asn103RT in MT4 cells; assay: Anti-HIV assay on MT4 cells, Asn103RT mutant; assay type: cell-based
Excerpt: as §1, §2, §3, §4, §5

[5] = system: HIV-1 mutant Ile108RT in MT4 cells; assay: Anti-HIV assay on MT4 cells, Ile108RT mutant; assay type: cell-based
Excerpt: as §1, §2, §3, §4, §5

[6] = P4, mutant Cys181RT, read-out: EC50 Cys181RT P4
[7] = Human immunodeficiency virus 1, read-out: EC50 Cys181RT P4
[8] = Human immunodeficiency virus 1, MT4, read-out: EC50 Ile100RT MT4
[9] = Human immunodeficiency virus 1, MT4, read-out: EC50 Asn103RT MT4
[10] = Human immunodeficiency virus 1, MT4, read-out: EC50 Ile108RT MT4
[11] = MT4, mutant Ile108RT, read-out: EC50 Ile108RT MT4

Row | Compound | EC50 [1, 6] | Relative (%) RT activity in vitro (compound added at 10 μM) [2] | EC50 [1, 7] | EC50 [3, 8] | EC50 [4, 9] | EC50 [5, 10] | other results
1 | CCOC(=O)c1c(OC2CC(C)CC(C)C2)c(CC)c(C)[nH]c1=O (single isomer, unassigned) [Z37inv] | 1970 nM | 5.5% |  |  |  |  | 
2 | O=C1Nc2ccc(Cl)cc2[C@@](C#CC2CC2)(C(F)(F)F)O1 [Efavirenz, reference compound] |  |  | < 1 nM | 178 nM | 5 nM | < 1 nM | 
3 | Cc1ccnc2c1NC(=O)c1cccnc1N2C1CC1 [Nevirapine, reference compound] |  | 16.7% | 10000 nM | 2060 nM | > 25000 nM | 1270 nM | 
4 | CCc1c(C)[nH]c(=O)c(CO)c1OC1CC(C)CC(C)C1 (stereo not shown) [Z45inv] | 496 nM | 12.1% |  |  |  |  | 
5 | CCc1c(C)[nH]c(=O)c([N+](=O)[O-])c1OC1CC(C)CC(C)C1 (stereo not shown) [Z91inv, 3-nitro-5-ethyl-6-methyl-4-[(3,5-dimethylcyclohexyl)oxy]pyridine-2(1H)-one] |  | 0% | 46 nM | 1380 nM | 980 nM | 72 nM | 
6 | CCc1c(C)[nH]c(=O)c(CSC(C)=O)c1OC1CC(C)CC(C)C1 (stereo not shown) [Z114] | 87 nM | 0% |  |  |  |  | EC50 Ile100RT MT4 ([3]; MT4, mutant Ile100RT): Inactive; EC50 Asn103RT MT4 ([4]; MT4, mutant Asn103RT): inactive; EC50 [5, 11]: 12000 nM
7 | CCc1c(C)[nH]c(=O)c(N(C)C)c1OC1CC(C)CC(C)C1 (stereo not shown) [Z150, 3-(dimethylamino)-5-ethyl-6-methyl-4-[(3,5-dimethylcyclohexyl)oxy]pyridine-2(1H)-one] |  | 0.9% | 61 nM | 87 nM | < 1 nM | < 1 nM | 
8 | CCc1c(C)[nH]c(=O)c(CN=[N+]=[N-])c1OC1CC(C)CC(C)C1 (stereo not shown) [Z153] | 108 nM | 0.7% |  |  |  |  | EC50 ([3]; MT4, mutant Ile100RT, read-out: EC50 Ile100RT MT4): 187 nM; EC50 ([4]; MT4, mutant Asn103RT, read-out: EC50 Asn103RT MT4): 150 nM; EC50 [5, 11]: 8 nM
9 | CCc1c(C)[nH]c(=O)c(C)c1OC1CC(C)CC(C)C1 (stereo not shown) [Z154] |  | 1.6% |  |  |  |  | 
